# Reference: patent US20090220537A1, “VACCINE DELIVERY SYSTEM” (THE UNIVERSITY OF QUEENSLAND, priority 2005, published 2009)
# How the values were obtained:
# [1] = system: RSV; format: in vivo, mice
# [2] = system: E7-expressing TC-1 tumour cells; format: in vivo; conditions: H-2b mice immunised twice, 2×10^5 TC-1 cells two weeks after second immunisation; within 15 days; FIG. 6C
sequence,measurement,setting,value
ESYIGSINNITKQSA [M215 peptide + adjuvant],Mean RSV load per ½-lung in mice with detectable infection,"[1]; BALB/c mice challenged intranasally with 8×10^5 pfu RSV, lungs 4 days later, immunofocus assay",1.0 × 10^3 pfu
same,Number of mice (%) with detectable RSV in lungs,"[1]; BALB/c mice, 5 per group, challenged intranasally with 8×10^5 pfu RSV 3 weeks after immunisation, lungs 4 days later, limit of detection 5×10^2 pfu/lung, listed as M15 peptide+adjuvant",One of five
same,RSV-specific immunostaining of lung cryosections,"[1]; indirect immunofluorescence, 4 days after challenge, FIG. 5",reduced staining
RAHYNIVTF [RAH peptide+adjuvant],Mice that developed tumour,[2],level of protection was consistent with that observed
